One block for each compound: values may come before it.
System: 883617-216-R-J1-PDC tumor spheroids, viability
Assay: Anticancer human tumor 883617-216-R-J1-PDC patient-derived bladder carcinoma cell line growth inhibition [PI3K]
Conditions: spheroids with HUVEC and MSC; for IC50: curve of first compound; for viability, T/C: stronger effect = lower value
Summary of the method: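 Targeted small molecules plus PI3K inhibitors, half-log dose series from Cmax (default top 10 microM), were applied to heterotypic spheroids of cancer cells with HUVEC and MSCs. Viability indicated growth inhibition.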
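Further: spheroids exposed to agents for 7 days before the viability read.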

IC50 (second compound 0.0316 µM): 86 nM | IC50 (second compound 0.1 µM): 79.9 nM | IC50 (second compound 0.316 µM): 76.2 nM | IC50 (second compound 1 µM): 46.7 nM | IC50 (second compound 3.16 µM): 23 nM | IC50 (second compound 10 µM): < 0.316 nM
Compound: CC(=O)c1c(C)c2cnc(Nc3ccc(N4CCNCC4)cn3)nc2n(C2CCCC2)c1=O + CC(Nc1ncnc2nc[nH]c12)c1cc2cccc(Cl)c2c(=O)n1-c1ccccc1
viability, T/C (second compound 0.0316 µM, first compound 0.000316 µM): 92.9% | viability, T/C (second compound 0.0316 µM, first compound 0.001 µM): 94.6% | viability, T/C (second compound 0.0316 µM, first compound 0.00316 µM): 87.7% | viability, T/C (second compound 0.0316 µM, first compound 0.01 µM): 86.6% | viability, T/C (second compound 0.0316 µM, first compound 0.0316 µM): 79.6% | viability, T/C (second compound 0.0316 µM, first compound 0.1 µM): 45.2% | viability, T/C (second compound 0.1 µM, first compound 0.000316 µM): 96% | viability, T/C (second compound 0.1 µM, first compound 0.001 µM): 107% | viability, T/C (second compound 0.1 µM, first compound 0.00316 µM): 76.3% | viability, T/C (second compound 0.1 µM, first compound 0.01 µM): 79.8% | viability, T/C (second compound 0.1 µM, first compound 0.0316 µM): 86.3% | viability, T/C (second compound 0.1 µM, first compound 0.1 µM): 40.8% | viability, T/C (second compound 0.316 µM, first compound 0.000316 µM): 100% | viability, T/C (second compound 0.316 µM, first compound 0.001 µM): 95.3% | viability, T/C (second compound 0.316 µM, first compound 0.00316 µM): 87.1% | viability, T/C (second compound 0.316 µM, first compound 0.01 µM): 84.3% | viability, T/C (second compound 0.316 µM, first compound 0.0316 µM): 58.8% | viability, T/C (second compound 0.316 µM, first compound 0.1 µM): 47.3% | viability, T/C (second compound 1 µM, first compound 0.000316 µM): 98% | viability, T/C (second compound 1 µM, first compound 0.001 µM): 78.3% | viability, T/C (second compound 1 µM, first compound 0.00316 µM): 80.3% | viability, T/C (second compound 1 µM, first compound 0.01 µM): 71.3% | viability, T/C (second compound 1 µM, first compound 0.0316 µM): 58.6% | viability, T/C (second compound 1 µM, first compound 0.1 µM): 36.4% | viability, T/C (second compound 3.16 µM, first compound 0.000316 µM): 76% | viability, T/C (second compound 3.16 µM, first compound 0.001 µM): 61.3% | viability, T/C (second compound 3.16 µM, first compound 0.00316 µM): 68.8% | viability, T/C (second compound 3.16 µM, first compound 0.01 µM): 58.6% | viability, T/C (second compound 3.16 µM, first compound 0.0316 µM): 44.1% | viability, T/C (second compound 3.16 µM, first compound 0.1 µM): 38.1% | viability, T/C (second compound 10 µM, first compound 0.000316 µM): 52.7% | viability, T/C (second compound 10 µM, first compound 0.001 µM): 39.4% | viability, T/C (second compound 10 µM, first compound 0.00316 µM): 41.4% | viability, T/C (second compound 10 µM, first compound 0.01 µM): 46.4% | viability, T/C (second compound 10 µM, first compound 0.0316 µM): 31.9% | viability, T/C (second compound 10 µM, first compound 0.1 µM): 23.9%

IC50 (second compound 0.00316 µM): 23.6 nM | IC50 (second compound 0.01 µM): < 9.49 nM | IC50 (second compound 0.0316 µM): < 9.49 nM | IC50 (second compound 0.1 µM): < 9.49 nM | IC50 (second compound 0.316 µM): < 9.49 nM | IC50 (second compound 1 µM): < 9.49 nM
Compound: Cn1cnc2c(F)c(Nc3ccc(Br)cc3Cl)c(C(=O)NOCCO)cc21 + COc1c(OCCCN2CCOCC2)ccc2c3n(c(=NC(=O)c4cnc(N)nc4)nc12)CCN3
viability, T/C (second compound 0.00316 µM, first compound 0.00949 µM): 59.8% | viability, T/C (second compound 0.00316 µM, first compound 0.03 µM): 43.9% | viability, T/C (second compound 0.00316 µM, first compound 0.0949 µM): 37.1% | viability, T/C (second compound 0.00316 µM, first compound 0.3 µM): 39.7% | viability, T/C (second compound 0.00316 µM, first compound 0.949 µM): 22.8% | viability, T/C (second compound 0.00316 µM, first compound 3 µM): 18.9% | viability, T/C (second compound 0.01 µM, first compound 0.00949 µM): 44.2% | viability, T/C (second compound 0.01 µM, first compound 0.03 µM): 42.5% | viability, T/C (second compound 0.01 µM, first compound 0.0949 µM): 27% | viability, T/C (second compound 0.01 µM, first compound 0.3 µM): 21.2% | viability, T/C (second compound 0.01 µM, first compound 0.949 µM): 22.8% | viability, T/C (second compound 0.01 µM, first compound 3 µM): 15.2% | viability, T/C (second compound 0.0316 µM, first compound 0.00949 µM): 23.1% | viability, T/C (second compound 0.0316 µM, first compound 0.03 µM): 20.8% | viability, T/C (second compound 0.0316 µM, first compound 0.0949 µM): 16.4% | viability, T/C (second compound 0.0316 µM, first compound 0.3 µM): 14.1% | viability, T/C (second compound 0.0316 µM, first compound 0.949 µM): 11.8% | viability, T/C (second compound 0.0316 µM, first compound 3 µM): 7.94% | viability, T/C (second compound 0.1 µM, first compound 0.00949 µM): 9.95% | viability, T/C (second compound 0.1 µM, first compound 0.03 µM): 7.44% | viability, T/C (second compound 0.1 µM, first compound 0.0949 µM): 5.9% | viability, T/C (second compound 0.1 µM, first compound 0.3 µM): 4.34% | viability, T/C (second compound 0.1 µM, first compound 0.949 µM): 3.93% | viability, T/C (second compound 0.1 µM, first compound 3 µM): 2.03% | viability, T/C (second compound 0.316 µM, first compound 0.00949 µM): 3.44% | viability, T/C (second compound 0.316 µM, first compound 0.03 µM): 2.07% | viability, T/C (second compound 0.316 µM, first compound 0.0949 µM): 1.3% | viability, T/C (second compound 0.316 µM, first compound 0.3 µM): 1.34% | viability, T/C (second compound 0.316 µM, first compound 0.949 µM): 0.72% | viability, T/C (second compound 0.316 µM, first compound 3 µM): 0.47% | viability, T/C (second compound 1 µM, first compound 0.00949 µM): 1.2% | viability, T/C (second compound 1 µM, first compound 0.03 µM): 0.53% | viability, T/C (second compound 1 µM, first compound 0.0949 µM): 0.38% | viability, T/C (second compound 1 µM, first compound 0.3 µM): 0.39% | viability, T/C (second compound 1 µM, first compound 0.949 µM): 0.18% | viability, T/C (second compound 1 µM, first compound 3 µM): 0.21%
